Measured values from patent publication US5298494A, “Monosaccharides having anti-proliferation and anti-inflammatory activity, compositions and uses thereof” (Greenwich Pharmaceuticals Incorporated, priority 1993, dated 1994).

System: LTB4 production by BUD-8 skin cell fibroblasts
Test: LTB4 production by BUD-8 skin cell fibroblasts (radioimmunoassay)
Assay type: cell-based, human
Protocol: The effect of the compound of the present invention on the proliferative capacity of human BUD-8 skin fibroblasts was measured with the use of a ^3 H-thymidine incorporation assay using culture conditions which were similar to those used for a Con-A blastogenesis assay, described previously. Cultured skin cells were detached from the surface of tissue culture flasks mechanically with a Teflon scraper. The cells were washed, resuspended in incubation medium and the viabilities were determined. These cells were then plated in triplicate at a density of 2×10^3 cells/0.1 ml/microtiter well for the proliferation assay and a density of 1×10^4 cells/0.1 ml/microtiter well for the assays to quantitate PGE2 and LTB4. To these cells was added incubation medium containing indomethacin to inhibit prostaglandin production, or nordihydroguaiaretic acid (NDGA) to inhibit leukotriene production (positive controls).
After 18 hours of culture, samples of the BUD-8 skin cell supernatants were collected from one set of microtiter plates and frozen until assayed for PGE2 or for LTB4 content using the radioimmunoassays described below.
Levels of LTB4 in aliquots of BUD-8 skin cell cultures supernatants were quantitated by radioimmunoassay (New England Nuclear). Briefly, into each polyproplyene tube were mixed 0.1 ml anti-LTB4, 0.1. ml ^3 H-LTB4 and 0.1 ml LTB4 standard or LTB4 containing sample. The BUD-8 skin cell culture supernatants were used directly in the radioimmunoassay. Tubes were refrigerated overnight. A charcoal solution (0.5 ml of 0.5% charcoal Norit A) was added and each tube was centrifuged. The radioactivity in the supernatant was then counted in a liquid scintillation counter.

In the case of `CCCCCCCOCCCO[C@@H]1[C@H]2OC(C)(C)O[C@H]2O[C@@H]1[C@H](O)CO` [IIg], the “concentrations with significantly decreased LTB4 levels” value was 1 to 100 µg/mL, the “LTB4 in supernatant (Table XIII)” value (1 ug/ml) was 32.2 ± 1.9 pg LTB4 /1000 ul supernatant and the “calculated LTB4 produced/10^5 BUD-8 cells” value (1 ug/ml) was 619 pg per 10^5 cells. The “LTB4 in supernatant (Table XIII)” value (10 ug/ml) was 28.8 ± 1.4 pg LTB4 /1000 ul supernatant, the “calculated LTB4 produced/10^5 BUD-8 cells” value (10 ug/ml) was 550 pg per 10^5 cells and the “LTB4 in supernatant (Table XIII)” value (25 ug/ml) was 23.7 ± 0.5 pg LTB4 /1000 ul supernatant. The “calculated LTB4 produced/10^5 BUD-8 cells” value (25 ug/ml) was 447 pg per 10^5 cells, the “LTB4 in supernatant (Table XIII)” value (100 ug/ml) was 27.3 ± 2.6 pg LTB4 /1000 ul supernatant and the “calculated LTB4 produced/10^5 BUD-8 cells” value (100 ug/ml) was 520 pg per 10^5 cells. The “LTB4 in supernatant (Table XIII)” value (300 ug/ml) was 24.5 ± 2.8 pg LTB4 /1000 ul supernatant, the “LTB4 in supernatant (Table XIII)” value (750 ug/ml) was 19.3 ± 1.9 pg LTB4 /1000 ul supernatant and the inhibition at 1 µg/mL (Homo sapiens, Fibroblast, 18 h, 1 ug/ml, read-out: % Effect on LTB4 production) was 17%. The inhibition at 10 µg/mL (Homo sapiens, Fibroblast, 18 h, 10 ug/ml, read-out: % Effect on LTB4 production) was 26%, the inhibition at 25 µg/mL (Homo sapiens, Fibroblast, 18 h, 25 ug/ml, read-out: % Effect on LTB4 production) was 39% and the inhibition at 100 µg/mL (Homo sapiens, Fibroblast, 18 h, 100 ug/ml, read-out: % Effect on LTB4 production) was 30%. For the same compound, the inhibition at 300 µg/mL (Homo sapiens, Fibroblast, 18 h, 300 ug/ml, read-out: % Effect on LTB4 production) was 37% and the inhibition at 750 µg/mL (Homo sapiens, Fibroblast, 18 h, 750 ug/ml, read-out: % Effect on LTB4 production) was 50%.
